Data on 2 compounds can be found in ChEMBL document CHEMBL5678818, “Discovery of potent SOS1 inhibitors that block RAS activation via disruption of the RAS-SOS1 interaction” (Proc Natl Acad Sci U S A, 2019).

For experiment [1], the target named is Angiopoietin-1 receptor (Homo sapiens) (UniProt Q02763). Briefly: Inhibition of TIE2 (unknown origin) assessed as residual activity at 1000 nM by KINOMEscan analysis relative to control.
In experiment [2] the target is Cyclin-dependent kinase 18 (Homo sapiens) (UniProt Q07002). Put plainly: Inhibition of PCTK3 (unknown origin) assessed as residual activity at 1000 nM by KINOMEscan analysis relative to control.
Cyclin-dependent kinase 18 (Homo sapiens), sequence (Q07002 whole entry): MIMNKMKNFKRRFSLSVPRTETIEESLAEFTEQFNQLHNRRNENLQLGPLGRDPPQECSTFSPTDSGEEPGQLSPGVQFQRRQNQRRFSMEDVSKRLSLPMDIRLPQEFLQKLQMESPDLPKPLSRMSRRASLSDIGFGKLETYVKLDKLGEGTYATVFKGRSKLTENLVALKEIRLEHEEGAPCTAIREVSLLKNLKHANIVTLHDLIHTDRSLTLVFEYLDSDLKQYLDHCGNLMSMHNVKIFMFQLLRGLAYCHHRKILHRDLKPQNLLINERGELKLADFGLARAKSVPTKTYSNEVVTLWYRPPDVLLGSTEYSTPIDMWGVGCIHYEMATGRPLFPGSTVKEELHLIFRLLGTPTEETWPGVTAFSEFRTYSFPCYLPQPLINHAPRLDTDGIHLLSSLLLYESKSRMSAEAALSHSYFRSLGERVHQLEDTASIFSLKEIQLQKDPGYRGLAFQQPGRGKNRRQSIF
The target of experiment [3] is Phosphatidylinositol 4-kinase beta (Homo sapiens) (UniProt Q9UBF8). Put plainly: Inhibition of PIK4CB (unknown origin) assessed as residual activity at 1000 nM by KINOMEscan analysis relative to control.
Phosphatidylinositol 4-kinase beta (Homo sapiens), sequence (Q9UBF8 2-816 limits assumed): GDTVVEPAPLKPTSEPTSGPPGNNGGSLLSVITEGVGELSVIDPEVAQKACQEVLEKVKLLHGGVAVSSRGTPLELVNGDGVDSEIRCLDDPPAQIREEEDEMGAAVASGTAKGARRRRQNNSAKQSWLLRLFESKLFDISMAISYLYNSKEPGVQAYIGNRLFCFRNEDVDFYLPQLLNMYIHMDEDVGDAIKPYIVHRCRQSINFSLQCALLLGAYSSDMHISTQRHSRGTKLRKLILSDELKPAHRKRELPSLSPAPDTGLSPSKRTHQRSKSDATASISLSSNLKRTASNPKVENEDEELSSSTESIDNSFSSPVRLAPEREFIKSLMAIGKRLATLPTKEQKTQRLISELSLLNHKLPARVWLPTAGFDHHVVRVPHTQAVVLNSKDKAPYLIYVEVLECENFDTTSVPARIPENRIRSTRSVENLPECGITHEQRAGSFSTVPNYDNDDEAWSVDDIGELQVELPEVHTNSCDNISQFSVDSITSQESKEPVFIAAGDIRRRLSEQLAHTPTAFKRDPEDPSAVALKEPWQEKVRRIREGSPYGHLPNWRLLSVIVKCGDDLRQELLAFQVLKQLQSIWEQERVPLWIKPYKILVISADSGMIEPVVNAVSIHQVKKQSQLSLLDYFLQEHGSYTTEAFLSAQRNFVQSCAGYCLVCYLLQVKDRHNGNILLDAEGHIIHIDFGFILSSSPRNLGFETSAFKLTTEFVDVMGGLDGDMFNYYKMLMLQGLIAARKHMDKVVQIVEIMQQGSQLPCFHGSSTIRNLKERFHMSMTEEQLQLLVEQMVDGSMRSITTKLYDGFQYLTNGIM
Experiment [4] concerns the target Serine/threonine-protein kinase MARK2 (Homo sapiens) (UniProt Q7KZI7). Put plainly: Inhibition of MARK2 (unknown origin) assessed as residual activity at 1000 nM by KINOMEscan analysis relative to control.
The target in experiment [5] is T1, Mitogen-activated protein kinase 13 (Homo sapiens) (UniProt O15264).
T1 sequence (whole entry): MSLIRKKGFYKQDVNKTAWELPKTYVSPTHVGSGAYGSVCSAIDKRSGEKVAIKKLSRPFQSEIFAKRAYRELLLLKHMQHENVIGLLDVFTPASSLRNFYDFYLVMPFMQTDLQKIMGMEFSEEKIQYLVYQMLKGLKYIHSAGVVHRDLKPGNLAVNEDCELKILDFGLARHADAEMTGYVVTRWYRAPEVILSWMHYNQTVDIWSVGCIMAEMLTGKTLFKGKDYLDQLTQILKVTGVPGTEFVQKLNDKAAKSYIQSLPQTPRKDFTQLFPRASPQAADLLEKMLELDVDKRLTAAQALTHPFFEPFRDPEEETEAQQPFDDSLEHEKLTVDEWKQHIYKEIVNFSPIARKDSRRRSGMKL
Briefly: Inhibition of p38-delta (unknown origin) assessed as residual activity at 1000 nM by KINOMEscan analysis relative to control.

Experiment [6] deals with Dual specificity protein kinase CLK2 (Homo sapiens) (UniProt P49760). Put plainly: Inhibition of CLK2 (unknown origin) assessed as residual activity at 1000 nM by KINOMEscan analysis relative to control.
Dual specificity protein kinase CLK2 (Homo sapiens), sequence (P49760 whole entry, looked up): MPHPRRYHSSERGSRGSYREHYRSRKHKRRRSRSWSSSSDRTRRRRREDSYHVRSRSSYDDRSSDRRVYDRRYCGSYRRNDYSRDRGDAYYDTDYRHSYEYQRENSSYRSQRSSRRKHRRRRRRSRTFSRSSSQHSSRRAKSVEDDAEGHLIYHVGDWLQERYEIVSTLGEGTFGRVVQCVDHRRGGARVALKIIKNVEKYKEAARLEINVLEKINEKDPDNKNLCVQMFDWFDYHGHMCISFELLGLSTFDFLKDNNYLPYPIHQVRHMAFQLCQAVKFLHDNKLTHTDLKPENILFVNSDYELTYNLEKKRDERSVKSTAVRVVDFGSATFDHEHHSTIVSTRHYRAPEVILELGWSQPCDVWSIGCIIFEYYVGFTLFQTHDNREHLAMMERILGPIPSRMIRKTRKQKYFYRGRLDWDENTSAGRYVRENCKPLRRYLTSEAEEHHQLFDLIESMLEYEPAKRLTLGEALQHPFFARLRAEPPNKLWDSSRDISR
Experiment [7] deals with T2, Serine/threonine-protein kinase BRSK1 (Homo sapiens) (UniProt Q8TDC3).
T2 sequence (whole entry): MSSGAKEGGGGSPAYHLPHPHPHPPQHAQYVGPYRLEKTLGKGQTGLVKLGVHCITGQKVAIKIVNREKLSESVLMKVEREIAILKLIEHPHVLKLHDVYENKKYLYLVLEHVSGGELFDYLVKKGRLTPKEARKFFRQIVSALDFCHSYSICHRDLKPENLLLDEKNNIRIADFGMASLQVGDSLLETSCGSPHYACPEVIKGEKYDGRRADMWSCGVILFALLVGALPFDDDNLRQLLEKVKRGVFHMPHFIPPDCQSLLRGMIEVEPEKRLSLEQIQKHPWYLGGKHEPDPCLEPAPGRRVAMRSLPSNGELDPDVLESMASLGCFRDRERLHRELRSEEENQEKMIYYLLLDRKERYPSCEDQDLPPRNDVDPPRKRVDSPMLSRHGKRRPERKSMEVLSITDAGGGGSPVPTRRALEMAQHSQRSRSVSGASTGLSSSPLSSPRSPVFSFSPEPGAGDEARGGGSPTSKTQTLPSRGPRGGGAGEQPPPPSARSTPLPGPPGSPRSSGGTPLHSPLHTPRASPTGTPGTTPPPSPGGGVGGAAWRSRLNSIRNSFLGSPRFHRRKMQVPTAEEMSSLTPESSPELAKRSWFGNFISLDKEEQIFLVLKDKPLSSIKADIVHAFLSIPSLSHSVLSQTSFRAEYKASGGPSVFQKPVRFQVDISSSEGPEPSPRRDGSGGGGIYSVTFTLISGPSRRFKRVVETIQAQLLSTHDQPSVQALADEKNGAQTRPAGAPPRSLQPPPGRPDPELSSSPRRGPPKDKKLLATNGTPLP
Put plainly: Inhibition of BRSK1 (unknown origin) assessed as residual activity at 1000 nM by KINOMEscan analysis relative to control.

Experiment [8] concerns the target Calcium-dependent protein kinase 1 (Plasmodium falciparum) (UniProt P62344). Put plainly: Inhibition of Plasmodium falciparum CDPK1 assessed as residual activity at 1000 nM by KINOMEscan analysis relative to control.
The target of experiment [9] is Serine/threonine-protein kinase 25 (Homo sapiens) (UniProt O00506). Put plainly: Inhibition of YSK1 (unknown origin) assessed as residual activity at 1000 nM by KINOMEscan analysis relative to control.
Serine/threonine-protein kinase 25 (Homo sapiens), sequence (O00506 whole entry, looked up): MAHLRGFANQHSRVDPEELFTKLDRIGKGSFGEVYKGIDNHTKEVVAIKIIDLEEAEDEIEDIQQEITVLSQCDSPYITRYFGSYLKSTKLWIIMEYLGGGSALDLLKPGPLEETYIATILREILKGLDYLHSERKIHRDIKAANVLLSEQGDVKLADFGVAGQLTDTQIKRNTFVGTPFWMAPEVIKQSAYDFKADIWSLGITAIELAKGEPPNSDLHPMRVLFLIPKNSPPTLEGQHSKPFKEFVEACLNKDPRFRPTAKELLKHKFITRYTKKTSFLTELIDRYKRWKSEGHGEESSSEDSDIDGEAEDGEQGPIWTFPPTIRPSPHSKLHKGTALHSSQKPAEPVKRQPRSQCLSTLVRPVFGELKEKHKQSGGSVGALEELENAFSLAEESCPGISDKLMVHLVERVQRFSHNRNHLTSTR
For experiment [10], the target named is T3, Serine/threonine-protein kinase ULK1 (Homo sapiens) (UniProt O75385).
T3 sequence (whole entry): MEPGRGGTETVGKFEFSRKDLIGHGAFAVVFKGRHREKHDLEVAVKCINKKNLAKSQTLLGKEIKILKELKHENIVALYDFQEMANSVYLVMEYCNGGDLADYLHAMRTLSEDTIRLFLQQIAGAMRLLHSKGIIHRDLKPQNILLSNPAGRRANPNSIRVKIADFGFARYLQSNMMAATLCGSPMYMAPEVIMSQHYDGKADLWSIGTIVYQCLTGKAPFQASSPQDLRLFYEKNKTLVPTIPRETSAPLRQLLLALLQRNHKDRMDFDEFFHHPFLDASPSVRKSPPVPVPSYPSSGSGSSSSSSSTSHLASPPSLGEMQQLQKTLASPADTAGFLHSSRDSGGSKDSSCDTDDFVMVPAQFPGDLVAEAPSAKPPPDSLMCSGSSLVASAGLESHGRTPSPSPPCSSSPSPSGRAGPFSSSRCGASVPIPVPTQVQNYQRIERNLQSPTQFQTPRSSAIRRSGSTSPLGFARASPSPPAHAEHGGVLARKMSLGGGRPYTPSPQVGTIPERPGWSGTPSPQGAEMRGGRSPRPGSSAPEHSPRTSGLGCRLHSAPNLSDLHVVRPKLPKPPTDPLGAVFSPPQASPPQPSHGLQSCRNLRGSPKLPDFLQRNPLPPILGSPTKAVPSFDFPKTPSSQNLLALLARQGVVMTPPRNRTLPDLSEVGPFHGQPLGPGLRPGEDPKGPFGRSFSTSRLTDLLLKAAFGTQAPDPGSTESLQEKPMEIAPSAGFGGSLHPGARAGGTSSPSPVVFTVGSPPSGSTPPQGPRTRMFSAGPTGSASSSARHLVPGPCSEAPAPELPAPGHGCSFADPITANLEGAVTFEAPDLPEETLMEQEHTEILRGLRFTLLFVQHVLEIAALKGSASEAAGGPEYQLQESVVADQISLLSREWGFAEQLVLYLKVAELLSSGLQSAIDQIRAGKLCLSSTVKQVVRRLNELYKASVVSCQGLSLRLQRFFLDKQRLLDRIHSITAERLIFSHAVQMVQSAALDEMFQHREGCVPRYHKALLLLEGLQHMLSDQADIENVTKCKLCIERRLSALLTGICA
Briefly: Inhibition of ULK1 (unknown origin) assessed as residual activity at 1000 nM by KINOMEscan analysis relative to control.

Serine/threonine-protein kinase MARK2 (Homo sapiens), sequence (Q7KZI7 whole entry): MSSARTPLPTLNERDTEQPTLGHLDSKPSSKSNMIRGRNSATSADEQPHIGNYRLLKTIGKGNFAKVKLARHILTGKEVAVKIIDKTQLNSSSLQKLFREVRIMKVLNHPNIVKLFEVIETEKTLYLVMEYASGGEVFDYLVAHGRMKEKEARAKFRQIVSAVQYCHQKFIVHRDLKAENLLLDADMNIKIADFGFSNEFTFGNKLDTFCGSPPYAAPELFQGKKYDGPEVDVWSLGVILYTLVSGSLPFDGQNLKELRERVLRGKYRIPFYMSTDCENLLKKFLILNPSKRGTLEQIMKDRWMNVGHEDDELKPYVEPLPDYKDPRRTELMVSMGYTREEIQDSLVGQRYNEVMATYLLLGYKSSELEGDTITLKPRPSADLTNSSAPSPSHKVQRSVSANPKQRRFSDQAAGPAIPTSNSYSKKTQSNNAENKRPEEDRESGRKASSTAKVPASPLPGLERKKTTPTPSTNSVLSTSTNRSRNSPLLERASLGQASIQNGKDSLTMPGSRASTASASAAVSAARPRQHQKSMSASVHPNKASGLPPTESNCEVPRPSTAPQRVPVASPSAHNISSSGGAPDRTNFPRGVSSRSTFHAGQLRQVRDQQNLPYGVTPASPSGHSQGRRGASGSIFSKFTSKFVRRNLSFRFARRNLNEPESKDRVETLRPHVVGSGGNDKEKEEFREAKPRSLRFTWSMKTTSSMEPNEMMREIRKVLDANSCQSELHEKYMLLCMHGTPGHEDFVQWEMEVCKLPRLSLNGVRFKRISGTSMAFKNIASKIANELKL
Calcium-dependent protein kinase 1 (Plasmodium falciparum), sequence (P62344 2-524 limits assumed): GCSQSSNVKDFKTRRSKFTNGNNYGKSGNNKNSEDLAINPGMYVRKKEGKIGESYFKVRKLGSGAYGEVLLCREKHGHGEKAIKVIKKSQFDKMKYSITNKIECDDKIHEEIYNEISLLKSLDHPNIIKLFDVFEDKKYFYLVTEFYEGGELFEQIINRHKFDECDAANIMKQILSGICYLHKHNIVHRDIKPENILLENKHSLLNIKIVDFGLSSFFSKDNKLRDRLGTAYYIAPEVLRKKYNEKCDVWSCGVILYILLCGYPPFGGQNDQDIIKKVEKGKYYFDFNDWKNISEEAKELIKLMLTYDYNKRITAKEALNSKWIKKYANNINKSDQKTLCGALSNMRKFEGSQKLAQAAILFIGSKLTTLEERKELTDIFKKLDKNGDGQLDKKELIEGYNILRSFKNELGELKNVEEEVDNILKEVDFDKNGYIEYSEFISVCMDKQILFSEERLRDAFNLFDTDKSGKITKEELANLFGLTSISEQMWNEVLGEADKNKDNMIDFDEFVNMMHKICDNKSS
Angiopoietin-1 receptor (Homo sapiens), sequence (Q02763 whole entry): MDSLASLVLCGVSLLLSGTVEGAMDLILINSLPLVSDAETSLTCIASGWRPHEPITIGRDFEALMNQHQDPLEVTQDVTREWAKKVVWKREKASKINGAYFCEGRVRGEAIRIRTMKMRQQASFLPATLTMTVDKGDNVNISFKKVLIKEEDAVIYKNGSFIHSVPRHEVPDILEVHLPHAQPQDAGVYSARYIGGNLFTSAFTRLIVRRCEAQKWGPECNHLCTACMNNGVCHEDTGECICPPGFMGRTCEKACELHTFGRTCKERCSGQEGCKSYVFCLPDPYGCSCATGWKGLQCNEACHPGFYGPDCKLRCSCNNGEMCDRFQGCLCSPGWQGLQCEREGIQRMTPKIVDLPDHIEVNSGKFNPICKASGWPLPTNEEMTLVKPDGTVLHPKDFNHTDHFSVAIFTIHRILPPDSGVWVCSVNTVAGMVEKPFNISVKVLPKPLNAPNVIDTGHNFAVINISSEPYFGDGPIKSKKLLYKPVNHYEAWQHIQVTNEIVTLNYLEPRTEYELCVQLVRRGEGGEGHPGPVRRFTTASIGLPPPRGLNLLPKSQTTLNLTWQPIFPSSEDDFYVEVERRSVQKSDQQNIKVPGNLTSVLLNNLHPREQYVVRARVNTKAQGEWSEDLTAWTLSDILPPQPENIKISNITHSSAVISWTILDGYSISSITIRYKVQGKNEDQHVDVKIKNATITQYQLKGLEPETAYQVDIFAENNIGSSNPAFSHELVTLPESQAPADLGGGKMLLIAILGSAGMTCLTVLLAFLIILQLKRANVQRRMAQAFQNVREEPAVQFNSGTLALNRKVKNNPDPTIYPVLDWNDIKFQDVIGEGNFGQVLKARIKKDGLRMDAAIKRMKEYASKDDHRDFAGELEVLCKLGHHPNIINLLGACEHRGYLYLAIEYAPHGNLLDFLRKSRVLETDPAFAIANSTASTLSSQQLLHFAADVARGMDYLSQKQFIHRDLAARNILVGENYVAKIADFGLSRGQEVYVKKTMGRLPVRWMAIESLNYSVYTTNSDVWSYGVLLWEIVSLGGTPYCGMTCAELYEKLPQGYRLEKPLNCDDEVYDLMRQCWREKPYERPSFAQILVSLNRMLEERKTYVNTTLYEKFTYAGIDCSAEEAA

Take `COc1cc2nc(C)nc(N[C@H](C)c3cccc(-c4cn[nH]c4)c3)c2cc1OC`: the Activity turned out to be 81% in [1]; 99% in experiment [2]; 69% in experiment [3]; 100% in experiment [4]; 90% in [5]; 78% in experiment [6]. Also, the Activity in experiment [7] came to 100%; in [8], 81%; in experiment [9], 99%; in experiment [10], 97%.

Consider `COc1cc2ncnc(N[C@H](C)c3cccc4ccccc34)c2cc1OC`, for which the Activity is 100% in experiment [1]; 100% in [2]; 82% in experiment [3]; 75% in [4]; 100% in experiment [5]; 100% in experiment [6]. Moreover, the Activity is 100% in experiment [7], 62% in experiment [8], 100% in experiment [9] and 87% in experiment [10].
